Drawing on ChEMBL document CHEMBL4312001, “Combined therapy with Benznidazole and repurposed drugs Clofazimine and Benidipine for chronic Chagas disease” (Eur J Med Chem, 2019), this text covers Activity for one molecule.

Calls of active or inactive are those of the source. The rule behind the calls is not given here.

The subject of data set [1] is Vero. The data set is described as follows: Cytotoxicity against African green monkey Vero cells at 0.5 to 20 uM after 72 hrs by propidium iodide staining based flow cytometric analysis. It counts as cell-based. The note with it: chlorocebus sabaeus.
For data set [2], the system named is Trypanosoma cruzi. Briefly: Antitrypanosomal activity against Trypanosoma cruzi K98 bloodstream form infected in C3H/HeNk mouse assessed as effect on QT interval at 15 mg/kg/day, po administered via gavage for 30 consecutive days starting from 90 days post infection and measured at 120 to 170 days post infection in presence of benznidazole by electrocardiographic analysis. Type of data set: functional, organism-based.

Data set [3] in a line: Toxicity in C3H/HeNk mouse infected with Trypanosoma cruzi K98 bloodstream form assessed as body weight gain at 15 mg/kg/day, po administered via gavage for 30 consecutive days starting from 90 days post infection measured up to 120 days post infection in presence of benznidazole. The settings on record: in vivo. It counts as organism-based.
In data set [4] the test system is Trypanosoma cruzi. The data set is described as follows: Antitrypanosomal activity against Trypanosoma cruzi K98 bloodstream form infected in C3H/HeNk mouse assessed as reduction in parasite burden in skeletal muscle at 15 mg/kg/day, po administered via gavage for 30 consecutive days starting from 90 days post infection and measured at 180 days post infection in presence of benznidazole by qRT-PCR analysis. It counts as functional, organism-based.

Data set [5] relates to Trypanosoma cruzi. Briefly: Antitrypanosomal activity against Trypanosoma cruzi K98 bloodstream form infected in C3H/HeNk mouse assessed as change in QRS morphology at 15 mg/kg/day, po administered via gavage for 30 consecutive days starting from 90 days post infection and measured at 170 days post infection in presence of benznidazole by electrocardiographic analysis (reference value: 25 %). It counts as functional.

Data set [6] deals with Trypanosoma cruzi. Briefly: Antitrypanosomal activity against Trypanosoma cruzi K98 bloodstream form infected in C3H/HeNk mouse assessed as effect on RR interval at 15 mg/kg/day, po administered via gavage for 30 consecutive days starting from 90 days post infection and measured at 120 to 170 days post infection in presence of benznidazole by electrocardiographic analysis. Type of data set: functional, organism-based.

The subject of data set [7] is Trypanosoma cruzi. Briefly: Antitrypanosomal activity against Trypanosoma cruzi K98 bloodstream form infected in C3H/HeNk mouse assessed as reduction in parasite burden in blood at 15 mg/kg/day, po administered via gavage for 30 consecutive days starting from 90 days post infection and measured at 180 days post infection in presence of benznidazole by qRT-PCR analysis. Type of data set: functional, organism-based. Background: Quantitative PCR measures a nucleic acid by following its amplification.

Data set [8] has as its system Trypanosoma cruzi. Briefly: Antitrypanosomal activity against Trypanosoma cruzi K98 bloodstream form infected in C3H/HeNk mouse assessed as reduction in cardiac tissue inflammation at 15 mg/kg/day, po administered via gavage for 30 consecutive days starting from 90 days post infection and measured at 180 days post infection in presence of benznidazole by hematoxylin and eosin staining based assay. Type of data set: functional, organism-based.

Data set [9] concerns Trypanosoma cruzi. The data set is described as follows: Antitrypanosomal activity against Trypanosoma cruzi K98 bloodstream form infected in C3H/HeNk mouse assessed as effect on heart rate at 15 mg/kg/day, po administered via gavage for 30 consecutive days starting from 90 days post infection and measured at 120 to 170 days post infection in presence of benznidazole by electrocardiographic analysis. Type of data set: functional, organism-based.

Data set [10] relates to Trypanosoma cruzi. The data set is described as follows: Antitrypanosomal activity against Trypanosoma cruzi K98 bloodstream form infected in C3H/HeNk mouse assessed as effect on PR interval at 15 mg/kg/day, po administered via gavage for 30 consecutive days starting from 90 days post infection and measured at 120 to 170 days post infection in presence of benznidazole by electrocardiographic analysis. Type of data set: functional, organism-based.

The subject of data set [11] is Trypanosoma cruzi. Briefly: Antitrypanosomal activity against Trypanosoma cruzi K98 bloodstream form infected in C3H/HeNk mouse assessed as change in QRS morphology at 15 mg/kg/day, po administered via gavage for 30 consecutive days starting from 90 days post infection and measured at 120 days post infection in presence of benznidazole by electrocardiographic analysis (reference value: 25 %). Type of data set: functional.

In data set [12] the test system is Trypanosoma cruzi. The data set is described as follows: Antitrypanosomal activity against Trypanosoma cruzi K98 bloodstream form infected in C3H/HeNk mouse assessed as adipocytes replacement in skeletal muscle by measuring number of adipocyte at 15 mg/kg/day, po administered via gavage for 30 consecutive days starting from 90 days post infection and measured at 180 days post infection in presence of benznidazole by hematoxylin and eosin staining based …. Type of data set: functional.

The subject of data set [13] is Trypanosoma cruzi. Briefly: Antitrypanosomal activity against Trypanosoma cruzi K98 bloodstream form infected in C3H/HeNk mouse assessed as effect on heart rate duration at 15 mg/kg/day, po administered via gavage for 30 consecutive days starting from 90 days post infection and measured at 120 to 170 days post infection in presence of benznidazole by electrocardiographic analysis. Type of data set: functional, organism-based.

The test system of data set [14] is Trypanosoma cruzi. Briefly: Antitrypanosomal activity against Trypanosoma cruzi K98 bloodstream form infected in C3H/HeNk mouse assessed as reduction in parasite burden in cardiac muscle at 15 mg/kg/day, po administered via gavage for 30 consecutive days starting from 90 days post infection and measured at 180 days post infection in presence of benznidazole by qRT-PCR analysis. Type of data set: functional, organism-based.

For `COC(=O)C1=C(C)NC(C)=C(C(=O)O[C@@H]2CCCN(Cc3ccccc3)C2)[C@@H]1c1cccc([N+](=O)[O-])c1.Cl`, the Activity entry is given as “Non-Toxic” in data set [1]; “Non-Toxic” in data set [3]; 50% in data set [5]; 50% in data set [11]; 1 - 3 in data set [12]. Also, the result in data set [2], in [6], in [9], in [10], in data set [13] and in [14] was inactive. The outcome in data set [4], in data set [7] and in data set [8] was Active.
